How the values were obtained:
HIFwt and HIFko MEFs = test: Tirapazamine toxicity by colony formation (clonogenic viability); type: cell-based, mouse
Description: FIG. 6. HIF dependent decrease in oxygen consumption raises intracellular oxygen concentration, protects when oxygen is limiting, and decreases sensitivity to tirapazamine in vitro. A: Pimonidazole was used to determine the intracellular oxygen concentration of cells in culture. HIFwt and HIFko MEFs were grown at high density and exposed to 2% O2 or anoxia for 24 h in glass dishes. For the last 4 hours of treatment, cells were exposed to 60 μg/ml pimonidazole. Pimonidazole binding was quantitated by flow cytometry after binding of an FITC conjugated anti-pimo mAb. Results are representative of two independent experiments. B: HIF1α reduces oxygen consumption and protects cells when total oxygen is limited. HIFwt and HIFko cells were plated at high density and sealed in aluminum jigs at <0.02% oxygen. At the indicated times, cells were harvested and dead cells were quantitated by trypan blue exclusion. […] C. PDK1 is responsible for HIF-1's adaptive response when oxygen is limiting. A similar jig experiment was performed to measure survival in the parental RKO, the RKO ShRNAHIF1α and the RKOShPDK1 cells. Cell death by trypan blue uptake was measured 48 h after the jigs were sealed. D: HIF status alters sensitivity to TPZ in vitro. HIFwt and HIFko MEFs were grown at high density in glass dishes and exposed to 21%, 2%, and <0.01% O2 conditions for 18 hours in the presence of varying concentrations of Tirapazamine. After exposure, cells were harvested, and replated under normoxia to determine clonogenic viability. Survival is calculated relative to the plating efficiency of cells exposed to 0 μM TPZ for each oxygen concentration. Error bars represent the standard error of the mean. E: Cell density alters sensitivity to TPZ. HIFwt and HIFko MEFs were grown at varying cell densities in glass dishes and exposed to 2% O2 in the presence of 10 μM TPZ for 24 h. After the exposure, survival was determined as described in […].
Cell lines and cell culture. Primary human fibroblasts have been described previously (Denko et al., 2003; Kim et al., 1997) and RKO human colon carcinoma cells were obtained from the American Type Culture Collection (ATCC, Manassas, Va.). RCC4, RCC4/VHL, and RCC4/Y98H human renal cell carcinoma cell lines have also been described previously (Chan et al., 2005). Wildtype and HIF-1α knockout mouse embryo fibroblasts (MEFs) were a gift from Dr. R Johnson (University of California, San Diego). All cells were grown in vitro as monolayers in Dulbeco's Modified Eagle's Media (DMEM) supplemented with 10% fetal bovine serum (FBS). For treatment with moderate hypoxia, cell culture dishes were placed into an Invivo2 humidified hypoxia workstation (Ruskinn Technologies, Bridgend, UK) at the indicated oxygen concentrations. Severe hypoxia was generated in an anaerobic workstation with a palladium catalyst (Sheldon Co., Cornelius, Oreg.). Tirapazamine toxicity was measured in cells plated overnight at the indicated density in glass dishes. The next day, fresh media was added containing the indicated concentration of TPZ, and the cells placed in the indicated oxygen environment. 24 hours later, the cells were trypsinized, counted, and plated for colony formation in normoxia.
Because HIF-1 can help cells adapt to hypoxia and maintain some intracellular oxygen level, it may also protect tumor cells from killing by the hypoxic cytotoxin tirapazamine (TPZ). TPZ toxicity is very oxygen dependent, especially at oxygen levels between 1-4% (Koch, 1993). We therefore tested the relative sensitivity of the HIFwt and HIFko cells to TPZ killing in high density cultures (FIG. 6d). We exposed the cells to the indicated concentrations of drug and oxygen concentrations overnight. The cells were then harvested and replated to determine reproductive viability by colony formation. […] The lower oxygen level is significant enough to dramatically sensitize these cells to killing by TPZ.

experimental tumors = conditions: literature reference (28); cited from earlier work
[1] = tested on: RKO and RKOShHIF1α 5×HRE-luciferase reporter tumors; test: Bioluminescent imaging of HRE-luciferase reporter tumors in vivo; design: species or system mouse; conditions: twelve hours after single dose 60 mg/kg tirapazamine ip
Description: FIG. 8. Increasing oxygen consumption by inhibition of PDK activity increases tumor hypoxia. (a) Luciferase activity of wildtype and HIF1α knockdown RKO cells stably transfected with a HIF1 responsive luciferase reporter gene. Cells were exposed to 0.5% O2 for 24 hours in triplicate. Luminescence is normalized to normoxic HIF wildtype cells. (b) Luciferase activity of wildtype RKO HIF1 reporter cells exposed to 0.5% O2 for 24 hours in the presence of increasing concentrations of echinomycin. Data are normalized to the increase in signal observed in the absence of drug. (c) Bioluminescent imaging in vivo. Images show a representative animal bearing an RKO reporter tumor on the left flank and an RKOShHIF1α reporter tumor on the right flank as a function of time after ip injection of 50 mg/kg DCA. […] (d) Quantification of in vivo bioluminescence. […] The data represent the mean of three independent experiments, each comprising 5 RKO and 5 RKOShHIF1α reporter tumors.
FIG. 14. Luciferase activity of hypoxia reporter tumors in response to tirapazamine. Mice bearing 500 mm^3 RKO HRE-luciferase tumors were imaged using an IVIS100 bioluminescent imaging system, and the signal from each tumor was quantified. […]
Bioluminescent imaging. […] After 10 min, bioluminescence was measured in a Xenogen IVIS100 imaging system (Xenogen). Data was quantified by measuring total photons/s from uniform regions of interest. […]

[2] = tested on: primary human or immortalized mouse fibroblasts; test: Oxygen consumption of fibroblast suspensions (Clark electrode); type: cell-based
Description: FIG. 1. Hypoxia inhibits mitochondrial oxygen consumption. A: Oxygen concentration curves generated using a Clark electrode for fibroblast suspensions from cultures exposed to normoxia or hypoxia for 24 h. Arrows indicate addition of the mitochondrial uncoupler CCCP and cytochrome poison cyanide. The slope of the curve is a measure of the rate of oxygen consumption. B: Average oxygen consumption rates in normal human fibroblasts and immortalized murine fibroblasts cultured in normoxia or 0.5% O2 for 24 h. C: Fraction of total oxygen consumption due to mitochondrial versus non-mitochondrial consumption in wild-type murine fibroblasts. Mitochondrial consumption was determined using 1 ug/ml of the cell permeable complex 3 inhibitor Antimycin A. D: Change in oxygen consumption in RKO cells after exposure to the indicated time in 0.5% O2, and time to recovery in normoxia following 24 h hypoxia. For all graphs, the error bars represent the standard error of the mean.
Oxygen consumption measurements. […] Oxygen consumption was measured in a 0.5 ml volume using an Oxytherm electrode unit (Hansatech, Norfolk, UK). […]
HIF-1 downregulates mitochondrial oxygen consumption. Having identified several putative HIF-1 responsive gene products that had the potential to regulate mitochondrial function, we then directly measured mitochondrial oxygen consumption in cells exposed to long term hypoxia. […]

SMILES	cell-density effect on TPZ toxicity in HIFko cells (HIFwt and HIFko MEFs; 2% O2, 10 μM TPZ, 24 h, HIFko)	cell-density effect on TPZ toxicity in HIFwt cells (HIFwt and HIFko MEFs; 2% O2, 10 μM TPZ, 24 h, HIFwt, highest density cultures)	effect of increased cell density on TPZ toxicity (HIFwt and HIFko MEFs; 2% O2, 10 μM TPZ, 24 h, varying cell densities)	sensitivity of HIF-null cells to the drug relative to wild type cells (HIFwt and HIFko MEFs; 2% oxygen, high density cultures, overnight)	sensitivity to TPZ killing (colony formation), HIFwt vs HIFko (HIFwt and HIFko MEFs; 21% oxygen, high density cultures, overnight)	sensitivity to TPZ killing (colony formation), HIFwt vs HIFko (HIFwt and HIFko MEFs; anoxic conditions, high density cultures, overnight)	reduction of the hypoxic fraction of experimental tumors (experimental tumors)	reduction of luciferase signal of HRE-reporter tumors [1] [%]	effect on total cellular oxygen consumption ([2]; fibroblast suspensions from normoxic and hypoxic (24 h) cultures, mitochondrial uncoupler)	effect on oxygen consumption in hypoxia treated cells ([2]; hypoxia treated cells)
Nc1n[n+]([O-])c2ccccc2[n+]1[O-] [tirapazamine]	much more pronounced	some increased toxicity	increased TPZ toxicity	significantly greater sensitivity	equally resistant	equally sensitive	greater than 10 fold	90		
N#CC(C#N)=NNc1cccc(Cl)c1 [CCCP, carbonyl cyanide 3-chloro phenylhydrazone]									stimulated	increase oxygen consumption
